Activity and inhibition data for two compounds are collected here from ChEMBL document CHEMBL3727354, “3-(2-amino-ethyl)-5-(3-cyclohexyl-propylidene)-thiazolidine-2,4-dione and its derivatives as multiple signaling pathway inhibitors and for the treatment of cancer” (2011).

A short description of series [1]: Cell cycle arrest in human U937 cells assessed as accumulation at G2/M phase after 24 hrs by propidium iodide staining-based flow cytometric analysis. The conditions noted are these: U-937. The series is classed as functional. Background: Flow cytometry measures light scatter and fluorescence of single cells or particles in a stream.
Series [2] has as its system Mus musculus. As to the kind of experiment: Toxicity in B6C3F1 mouse assessed as effect on body weight at 20 mg/kg, po administered for 21 days. The series is classed as organism-based. Particulars: in vivo, 504 h.
Series [3] relates to Mus musculus. As to the kind of experiment: Toxicity in B6C3F1 mouse assessed as effect on general health at 20 mg/kg, po administered for 21 days. The class given is organism-based. The conditions noted are these: in vivo, 504 h.
A short description of series [4]: Cell cycle arrest in human U937 cells assessed as decrease in cell level at G0/G1 phase after 24 hrs by propidium iodide staining-based flow cytometric analysis. The series is classed as functional. The conditions noted are these: U-937.
Series [5] is described as follows: Cell cycle arrest in human U937 cells assessed as decrease in cell level at S phase after 24 hrs by propidium iodide staining-based flow cytometric analysis. Particulars: U-937. The series is classed as functional.
Series [6] relates to B16-F10. As to the kind of experiment: Antitumor activity against mouse B16F10 cells implanted in B6C3F1 mouse assessed as increase in mouse survival rate at 50 mg/kg, ip administered on day 11 post tumor implantation measured twice a day during compound dosing. The class given is functional, organism-based.
Series [7] can be described thus: Inhibition of Raf/MEK/ERK pathway in human U937 cells assessed as reduction of MEK phosphorylation at 0.3 to 30 uM preincubated for 1 hr followed by PMA stimulation measured after 30 mins by Western blot analysis in presence of MEK inhibitor PD184352. The series is classed as cell-based. The conditions noted are these: U-937. (In general: In western blotting, separated proteins are transferred to a membrane and probed.)

The nature of series [8]: Inhibition of Raf/MEK/ERK pathway in human U937 cells assessed as inhibition of ERK1/2 phosphorylation at Thr202/Tyr204 at 3 uM preincubated for 1 hr followed by PMA stimulation measured after 30 mins by Western blot analysis. The class given is cell-based. Particulars: U-937.
The test system of series [9] is U-937. As to the kind of experiment: Induction of apoptosis in human U937 cells after 24 hrs by annexin V/propidium iodide staining-based flow cytometric analysis. The series is classed as functional, cell-based.
In series [10] the test system is DU-145. As to the kind of experiment: Induction of apoptosis in human DU145 cells at 5 to 25 uM after 24 hrs by annexin V/propidium iodide staining-based flow cytometric analysis. The class given is functional, cell-based.
A short description of series [11]: Inhibition of Raf/MEK/ERK pathway in human U937 cells assessed as reduction of MEK phosphorylation preincubated for 1 hr followed by PMA stimulation measured after 30 mins by Western blot analysis. The series is classed as cell-based. Particulars: U-937.
In series [12] the test system is M12. As to the kind of experiment: Induction of apoptosis in human M12 cells after 24 hrs by annexin V/propidium iodide staining-based flow cytometric analysis. The series is classed as functional, cell-based.
Series [13] has as its system Mus musculus. As to the kind of experiment: Toxicity in B6C3F1 mouse assessed as effect on body weight at 30 to 80 mg/kg, po administered for 21 days. Particulars: in vivo, 504 h. The class given is organism-based.
Series [14] relates to B16-F10. As to the kind of experiment: Antitumor activity against mouse B16F10 cells implanted in B6C3F1 mouse assessed as decrease in lung tumor nodules at 20 mg/kg administered daily via oral gavage started one day before tumor implantation and stopped at day 15 post tumor implantation measured at day 18. The class given is functional, organism-based.
Series [15] is described as follows: Inhibition of PI3K/Akt pathway in human U937 cells assessed as reduction of Akt phosphorylation preincubated for 1 hr followed by PMA stimulation measured after 30 mins by Western blot analysis. The series is classed as cell-based. The conditions noted are these: U-937.
Series [16] relates to Mus musculus. As to the kind of experiment: Toxicity in B6C3F1 mouse assessed as effect on general health at 30 to 80 mg/kg, po administered for 21 days. The conditions noted are these: in vivo, 504 h. The series is classed as organism-based.

The source made the active and inactive calls. No cut-off for these calls is given here.

As for `Cl.NCCN1C(=O)S/C(=C\CCc2ccccc2)C1=O`, the result in [1], in series [4], in series [5] and in series [6] was Active. The Activity entry in series [2] and in series [3] was “Non-toxic” in each case.
`Cl.NCCN1C(=O)S/C(=C\CCC2CCCCC2)C1=O`: the inhibition result in series [7] was “inactive”. Also, in series [8], the inhibition result is “Active”. The Activity entry is “Dose-dependent effect” in [9], “Dose-dependent effect” in series [12], “Non-toxic” in series [13] and “Non-toxic” in [16]. Besides, the result in [10] was inactive. Besides, the inhibition entry in series [11] and in series [15] was “Dose-dependent effect” throughout. Also, the result in series [1], in series [4], in series [14] and in series [5] was Active.
